Tested on: NT1/19 cells
Test: Effect of varying alkanoates on antibody production from hybridoma cells
Format: cell-based
Conditions: for AVERAGE DATA FROM EXP. #1 & #2: average of relative productivity, control 100.00; for PRODUCTIVITY EXP. #1: control 3.30; for PRODUCTIVITY EXP #2: control 2.39
Protocol: The IgM secreting mouse hybridoma cell line NB1/19 was grown in suspension culture in Dulbeccos Modified Eagles Minimum (DMEM) serum-free medium containing albumin, insulin, transferrin, gentamycin and other additives as required to cultivate cells in suspension culture. The NB1/19 cell line produces a mouse monoclonal antibody having specificity for an antigenic determinant of human B-type blood cells. The preparation of this call line is described in detail in the specification of British Patent GB 2097425B. It will be appreciated, however, that other hybridoma cell lines may be used in place of this particular cell line as appropriate in this and other examples.
The cells were grown to a viable cell density of 1.0-1.5×10^6 cells/ml. Viable cell density was determined by counting the number of cells which exclude trypan blue, a staining agent. A sample of the suspension culture was diluted in a serum-free medium to a density of about 1.3×10^5 cells/ml. Aliquots of 50 ml in volume were dispensed into shake flasks and sodium butyrate added at concentrations of 0.1 mM, 0.3 mM, 0.5 mM and 1.0 mM.
The shake flasks were gassed with 5% CO2-95% air, and sealed and incubated with shaking at 37° C. for up to 207 hours. (Table 1). Samples ([…]) were removed from the culture by pipette. 100 μl was used to determine viable cell count and the reminder centrifuged at 300×g for five minutes. Supernatants were stored at −20° C. prior to antibody determination by enzyme linked immunosorbent assay (ELISA).
NT1/19 cells were cultured as in Example 1. Varying straight chain sodium alkanoate salts (propionate, butyrate, bentanoate or hexanoate) were added to the inoculum at the concentrations indicated in Table 5.

SMILES	RELATIVE PRODUCTIVITY EXP. #1 (0.50 mM alkanoate)	AVERAGE DATA FROM EXP. #1 & #2 (0.50 mM alkanoate)	PRODUCTIVITY EXP. #1 (0.50 mM alkanoate)	RELATIVE PRODUCTIVITY EXP. #1 (1.00 mM alkanoate)	RELATIVE PRODUCTIVITY EXP. #2 (1.00 mM alkanoate)	AVERAGE DATA FROM EXP. #1 & #2 (1.00 mM alkanoate)	PRODUCTIVITY EXP #2 (1.00 mM alkanoate)	PRODUCTIVITY EXP. #1 (1.00 mM alkanoate)
CCCCC(=O)[O-].[Na+] [PENANOATE, bentanoate]	163.6 % of control	163.64	5.40 ug antibody per 10^5 cells	206.1 % of control	230.1 % of control	218.09	5.50 ug antibody per 10^5 cells	6.80 ug antibody per 10^5 cells
CCC(=O)O [PROPIONATE, propionate]	–	172.73	5.70 ug antibody per 10^5 cells	–	–	210.07	4.95 ug antibody per 10^5 cells	7.03 ug antibody per 10^5 cells

— patent US6660501B2, “Production of proteins by cell culture” (Lonza Group, AG, priority 1986, dated 2003)
